Experimental data reported in patent US20100063102A1, “TREATMENT OF FAECAL INCONTINENCE” (UROGENE, priority 2007, published 2010).
Entries after “also recorded” stand apart in the source; their conditions may differ.

System: striated anal sphincter
Experiment: Effect on the electromyographic activity of the rabbit striated anal sphincter under bladder irritation (SS-EMG)
Type: in vivo
Description: The effect of the HP749 compound was tested on rabbits under conditions of bladder irritation. Female rabbits of the New Zealand race weighing from 2.5 to 3.5 kg were used. The bladder irritation was caused by transcontinuous bladder infusion of 0.5% acetic acid. Under these conditions, the striated anal sphincter electromyography is increased. Throughout the experiment, the animal was placed in the supine position and anaesthetized with 2-3% of halothane. The striated sphincter electromyography (SS-EMG) was carried out using two electrodes (30-gauge needle) placed percutaneously in the striated anal sphincter, approximately 5-10 mm from the anus (laterally). The electric signals were amplified on an ML136 preamplifier (AD Instruments, PanLab, Barcelona, Spain), filtered below 1 Hz and above 5 KHz and presented in a PowerLab window. The striated sphincter electromyography (SS-EMG) was recorded continuously during the cystometry. Cumulative doses of the HP749 compound (0, 1, 3 and 5 mg/kg) were administered through an intravenous canula connected to the ear vein. The medicaments in saline solution were freshly prepared before each experiment and administered in a volume of 1 ml, followed by rinsing with 1 ml of physiological saline solution. The results were expressed by the mean±the standard error of the […]. The electromyographic values obtained under conditions of irritation after administration of a placebo were used as control values. The effects of the HP749 compound were analysed and compared with the control values by means of a Wilcoxon test. The results obtained were considered to be significant when p<0.05.

CCCN(c1ccncc1)n1ccc2ccccc21 [HP749, N-propyl-N-(4-pyridinyl)-1H-indol-1-amine]
mean increase in the EMG activity compared with the control value (anaesthetized female New Zealand rabbits, bladder irritation with 0.5% acetic acid, cumulative i.v. doses 1, 3 and 5 mg/kg, control = placebo, p<0.01): 155% | effect on the electromyographic (EMG) activity of the striated anal sphincter (at all the doses (1, 3 and 5 mg/kg i.v.), FIG. 1, Wilcoxon test vs placebo control): significant effect; also recorded: powerful effect | dose at which the effect on the external anal sphincter appeared to have reached its maximum (rabbits, i.v., lowest dose tested): 1 mg/kg
